How the values were obtained:
[1] = molecular target: Tyrosine-protein kinase JAK1 (Homo sapiens, UniProt P23458); assay: (§1) In Vitro Assay: NCEs were screened using in vitro JAK (1, 2 and 3) kinase assay on ADP Glo platform (Promega). Fixed amount of recombinant purified human JAK (25 ng of JAK1 and 10 ng of JAK2 and JAK3 per reaction, from Life Technologies Ltd) were incubated with increasing concentration of NCEs in 1× kinase reaction buffer (40 mM Tris-Cl, pH7.5, 20 mM MgCl2, 0.1 mg/ml BSA and 50 μM DTT). Enzymatic reaction was initiated by adding a substrate cocktail containing 50 μM of ATP (final concentration) and 5 μg for JAK1 and 2.5 μg for JAK2 and JAK3 of polyGln4Tyr1 (Signal Chem) in total 25 μl of reaction in 96 well plate. The reaction was incubated at room temperature for 1 hr.After 1 hr of incubation equal volume (25 μl per reaction) of ADP Glo was added and incubated at room temperature for 40 min.This was followed by addition of kinase detection reagent (50 μl per reaction) and incubation at room temperature for 30 min. Finally, plate was read for luminescence at an integration time of 500 millisecond per well.
Sequence of Tyrosine-protein kinase JAK1 (P23458 whole entry): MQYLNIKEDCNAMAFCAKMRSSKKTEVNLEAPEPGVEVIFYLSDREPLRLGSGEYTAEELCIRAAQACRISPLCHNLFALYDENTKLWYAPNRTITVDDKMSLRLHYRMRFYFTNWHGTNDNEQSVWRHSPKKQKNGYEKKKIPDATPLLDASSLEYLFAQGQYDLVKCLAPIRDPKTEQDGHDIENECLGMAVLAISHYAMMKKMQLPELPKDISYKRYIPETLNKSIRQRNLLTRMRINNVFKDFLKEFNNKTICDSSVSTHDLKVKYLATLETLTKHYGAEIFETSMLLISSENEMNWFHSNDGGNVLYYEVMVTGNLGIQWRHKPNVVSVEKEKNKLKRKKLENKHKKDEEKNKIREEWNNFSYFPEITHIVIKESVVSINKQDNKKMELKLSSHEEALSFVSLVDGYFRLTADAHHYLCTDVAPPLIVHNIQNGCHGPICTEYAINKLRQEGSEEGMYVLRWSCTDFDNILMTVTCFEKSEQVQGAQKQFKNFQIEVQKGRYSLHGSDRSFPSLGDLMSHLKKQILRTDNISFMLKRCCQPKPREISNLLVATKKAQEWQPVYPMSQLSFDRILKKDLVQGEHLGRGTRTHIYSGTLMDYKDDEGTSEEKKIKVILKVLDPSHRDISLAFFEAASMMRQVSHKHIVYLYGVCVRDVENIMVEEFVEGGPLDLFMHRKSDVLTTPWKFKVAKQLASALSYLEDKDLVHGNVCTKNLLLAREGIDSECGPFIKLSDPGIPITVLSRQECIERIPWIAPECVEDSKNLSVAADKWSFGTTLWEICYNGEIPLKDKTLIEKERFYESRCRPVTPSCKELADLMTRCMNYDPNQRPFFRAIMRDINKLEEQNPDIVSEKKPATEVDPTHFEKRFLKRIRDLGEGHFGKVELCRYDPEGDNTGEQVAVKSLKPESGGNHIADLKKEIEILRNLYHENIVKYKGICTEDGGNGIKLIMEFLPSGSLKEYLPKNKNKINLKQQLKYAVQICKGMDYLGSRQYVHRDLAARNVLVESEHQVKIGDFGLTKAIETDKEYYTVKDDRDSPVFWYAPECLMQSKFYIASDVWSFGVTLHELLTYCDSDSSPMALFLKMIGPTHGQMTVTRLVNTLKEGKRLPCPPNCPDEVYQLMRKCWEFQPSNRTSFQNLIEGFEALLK

[2] = molecular target: Tyrosine-protein kinase JAK2 (Homo sapiens, UniProt O60674); assay: as §1
Sequence of Tyrosine-protein kinase JAK2 (O60674 whole entry): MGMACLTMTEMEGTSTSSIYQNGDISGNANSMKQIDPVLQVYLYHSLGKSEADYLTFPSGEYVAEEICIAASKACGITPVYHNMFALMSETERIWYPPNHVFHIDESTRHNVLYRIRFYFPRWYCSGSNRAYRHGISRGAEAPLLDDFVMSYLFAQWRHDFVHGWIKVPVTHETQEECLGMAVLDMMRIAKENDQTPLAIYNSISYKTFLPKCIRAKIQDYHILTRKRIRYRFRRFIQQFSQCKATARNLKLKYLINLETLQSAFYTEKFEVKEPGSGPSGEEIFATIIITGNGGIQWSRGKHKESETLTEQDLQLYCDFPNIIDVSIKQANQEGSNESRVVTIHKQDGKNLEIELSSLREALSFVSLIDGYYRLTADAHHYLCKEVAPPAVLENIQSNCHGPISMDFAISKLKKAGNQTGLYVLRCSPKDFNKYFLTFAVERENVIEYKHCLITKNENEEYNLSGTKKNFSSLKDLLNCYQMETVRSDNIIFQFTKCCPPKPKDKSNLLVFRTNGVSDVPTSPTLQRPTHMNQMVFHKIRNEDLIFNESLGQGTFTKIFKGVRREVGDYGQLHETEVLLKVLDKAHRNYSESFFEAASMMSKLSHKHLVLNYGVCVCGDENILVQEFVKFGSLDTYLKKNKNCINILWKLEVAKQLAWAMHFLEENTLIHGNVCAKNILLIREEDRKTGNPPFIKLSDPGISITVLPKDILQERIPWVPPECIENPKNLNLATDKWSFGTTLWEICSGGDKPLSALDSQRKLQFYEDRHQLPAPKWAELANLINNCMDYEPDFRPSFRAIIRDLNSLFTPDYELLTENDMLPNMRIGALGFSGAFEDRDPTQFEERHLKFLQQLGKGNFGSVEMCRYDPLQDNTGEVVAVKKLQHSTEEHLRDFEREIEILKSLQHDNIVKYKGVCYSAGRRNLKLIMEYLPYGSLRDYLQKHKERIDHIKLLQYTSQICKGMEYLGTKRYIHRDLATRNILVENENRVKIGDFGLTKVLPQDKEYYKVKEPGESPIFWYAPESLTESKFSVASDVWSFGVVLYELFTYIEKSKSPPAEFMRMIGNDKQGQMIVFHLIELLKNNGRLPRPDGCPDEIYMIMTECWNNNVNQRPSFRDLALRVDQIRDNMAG

[3] = molecular target: T1, Tyrosine-protein kinase JAK3 (Homo sapiens, UniProt P52333); assay: as §1
T1 sequence (P52333 whole entry): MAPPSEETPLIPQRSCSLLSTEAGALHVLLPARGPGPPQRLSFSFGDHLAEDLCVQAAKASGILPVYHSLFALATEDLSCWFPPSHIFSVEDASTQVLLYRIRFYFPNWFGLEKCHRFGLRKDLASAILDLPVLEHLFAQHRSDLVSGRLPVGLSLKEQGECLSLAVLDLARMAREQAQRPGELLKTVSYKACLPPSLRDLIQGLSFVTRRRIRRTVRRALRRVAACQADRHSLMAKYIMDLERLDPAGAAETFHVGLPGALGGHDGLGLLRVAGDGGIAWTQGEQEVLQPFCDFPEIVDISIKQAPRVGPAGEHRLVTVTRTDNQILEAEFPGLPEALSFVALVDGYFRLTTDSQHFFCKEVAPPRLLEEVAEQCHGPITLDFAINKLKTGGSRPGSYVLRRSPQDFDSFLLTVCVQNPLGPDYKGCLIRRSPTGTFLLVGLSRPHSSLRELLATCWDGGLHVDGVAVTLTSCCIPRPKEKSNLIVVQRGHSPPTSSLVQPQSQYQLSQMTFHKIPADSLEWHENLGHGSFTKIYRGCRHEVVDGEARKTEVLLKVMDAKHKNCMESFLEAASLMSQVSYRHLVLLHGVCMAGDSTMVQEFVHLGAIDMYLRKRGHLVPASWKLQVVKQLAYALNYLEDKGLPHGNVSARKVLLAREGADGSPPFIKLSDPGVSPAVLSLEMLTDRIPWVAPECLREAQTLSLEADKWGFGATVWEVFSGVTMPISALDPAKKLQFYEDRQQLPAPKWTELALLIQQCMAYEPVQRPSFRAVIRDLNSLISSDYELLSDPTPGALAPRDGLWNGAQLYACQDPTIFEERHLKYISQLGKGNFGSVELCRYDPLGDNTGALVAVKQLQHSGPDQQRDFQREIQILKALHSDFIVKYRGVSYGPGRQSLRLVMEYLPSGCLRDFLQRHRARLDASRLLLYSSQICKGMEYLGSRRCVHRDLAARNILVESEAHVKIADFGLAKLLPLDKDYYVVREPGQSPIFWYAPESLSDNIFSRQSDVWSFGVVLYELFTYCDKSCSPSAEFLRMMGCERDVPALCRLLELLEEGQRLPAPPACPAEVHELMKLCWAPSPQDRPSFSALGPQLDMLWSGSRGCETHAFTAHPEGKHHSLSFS

Compound | IC50 [1] [µM] | IC50 [2] [µM] | IC50 [3] [µM]
N#CCNC(=O)c1ccc(-c2ccnc(Nc3ccc(N4CCC(N5CCOCC5)CC4)cc3)n2)cc1 | 0.0117 | 0.0066 | 0.0623
N#CCNC(=O)c1ccc(-c2nc(Nc3ccc(N4CCC(N5CCOCC5)CC4)cc3)ncc2F)cc1 | 0.0067 | 0.0049 | 0.0166
N#CCNC(=O)c1ccc(-c2ccnc(Nc3ccc(N4CCC(C5=NCCN5)CC4)cc3)n2)cc1 | 0.013 | 0.02 | 0.124

— ChEMBL document CHEMBL5725466, “N-cyanomethylamides as inhibitors of janus kinase” (2017)
